Laboratory results as given in patent US6375969B1, “Broadcast carriers for pesticides and their use” (priority 1996, dated 2002).

Assay: Volatile materials test in ventilating oven
Format: physicochemical
Settings: after 2 hours at 141° F. (=60.5° C.) in a ventilating oven
Protocol: The moisture content of raw material Celite 500 is 3.7 weight percent. So, the weight of raw material Celite 500 is close to the dry weight of Celite 500. According to the product specifications of Supragil MNS/90, Soprophor S/40-P, and Supragil WP, the moisture contents of these components are no higher than 2 weight percent. Also, samples of chlorpyrifos technical were tested for volatile materials in a ventilating oven. The weight loss after 2 hours at 141° F. (=60.5° C.) was only 0.6 weight percent. […] Therefore, the dry spreadable granular product as manufactured above contains approximately 2.0 weight percent chlorpyrifos.

For CCOP(=S)(OCC)Oc1nc(Cl)c(Cl)cc1Cl [chlorpyrifos technical, Chlorpyrifos], the “weight loss (volatile materials)” value was 0.6 weight percent.
